Reference: patent US11560391B2, “Sulfonylurea compounds as inhibitors of interleukin-1 activity” (Genentech, Inc., priority 2018, dated 2023)
pIC50: −log10 of the molar value. Read-outs that look alike come from different tables or passages of the source.

Experiments:
[1] = test system: THP-1 ASC-GFP cells; assay: THP-1 ASC-GFP speck assay (NLRP3 inflammasome activation, nigericin); type: cell-based; conditions: THP1-ASC-GFP; PMA-differentiated, LPS primed, 10 μM nigericin
Procedure: THP-1 ASC-GFP cell line was purchased from Invivogen, San Diego, for infammasome activation assay. THP-1 ASC-GFP cells stably express a 37.6 kDa ASC::GFP fusion protein that enables monitoring of spec formation by microscopy after activation of NLRP3 dependent inflammasome pathway. Cells were maintained at a density of 600,000 cells/mL in growth media consisting of RPMI 1640, 2 mM L-glutamine, 25 mM HEPES and 10% heat inactivated fetal bovine serum at 37° C. and 5% CO2. Cells were passaged every 3-4 days and used for assays for up to 20 passages.
THP-1 ASC-GFP cells were collected by centrifuging cells at 800 RPM for 5 minutes. Cell culture supernatant was removed and cells were re-suspended in fresh media at density of 1×10^6 cells/mL in assay media consisting of RPMI 1640, 2 mM L-glutamine, 25 mM HEPES and 10% heat inactivated fetal bovine serum. Phorbol 12-myristate 13-acetate (PMA) (Invivogen,tlrl-pma) was added to the cell suspension at a final concentration of 500 ng/ml and mixed thoroughly. 40,000 cells were added per well of a 384 well plate and differentiated into macrophages overnight at 37° C. and 5% CO2. Cells were primed with 1 μg/mL of lipopolysaccharide (Invivogen Ultrapure lipopolysaccharide from E. coli, tlrl-3pelps) in assay media for 3 hours at 37° C. and 5% CO2. After priming, media was removed and THP-1 ASC-GFP cells were preincubated with serially diluted test compounds with starting concentration of 40 μM followed by 2-fold dilution for a 20-point curve or vehicle (DMSO) for 30 min in assay media at 37° C. and 5% CO2. Cells were then stimulated with 10 μM nigericin (Invivogen, tlrl-nig-5) for 90 min at 37° C. and 5% CO2 to activate NLRP3 dependent inflammasome pathway and spec formation. After stimulation, cells were fixed with 4.8% paraformaldehyde (Electron Microscopy Sciences #15710-S) and incubated at room temperature for 15 min. Cells were then washed 3-times with 100 μL of phosphate buffered saline and permeabilized in the presence of premeablization/block buffer for 20 min at room temperature. Cells were then washed 3-times with 100 μL phosphate buffered saline and incubated for 1 hr at room temperature in the presence of hoechst. After staining with Hoechst, cells were washed 3-times with 100 μL phosphate buffered saline and imaged for ASC spec formation.
THP-1 ASC-GFP cells were imaged in 488 and Hoechst channels. Hoechst channel was used for cell count and 488 channel was used to identify number of GFP ASC specks in imaged fields. Percentage of cells with a spec was calculated by dividing the number of GFP positive spots by total number of cells.

[2] = target: T1, NLRP3 inflammasome (Homo sapiens, UniProt Q96P20); assay: NLRP3 inflammasome activation assay in LPS-primed, nigericin-stimulated PBMCs, IL-1β release; type: cell-based; conditions: PBMC, LPS priming, 10 μM nigericin; for pIC50: read-out: PMBC IL-1β IC50; for IC50: PMBC IL-1β IC50 (μM)
T1 construct: freshly isolated from human peripheral blood from healthy donors; StemCells Technologies; host or cells: primary human PBMCs
T1 sequence (Q96P20 whole entry): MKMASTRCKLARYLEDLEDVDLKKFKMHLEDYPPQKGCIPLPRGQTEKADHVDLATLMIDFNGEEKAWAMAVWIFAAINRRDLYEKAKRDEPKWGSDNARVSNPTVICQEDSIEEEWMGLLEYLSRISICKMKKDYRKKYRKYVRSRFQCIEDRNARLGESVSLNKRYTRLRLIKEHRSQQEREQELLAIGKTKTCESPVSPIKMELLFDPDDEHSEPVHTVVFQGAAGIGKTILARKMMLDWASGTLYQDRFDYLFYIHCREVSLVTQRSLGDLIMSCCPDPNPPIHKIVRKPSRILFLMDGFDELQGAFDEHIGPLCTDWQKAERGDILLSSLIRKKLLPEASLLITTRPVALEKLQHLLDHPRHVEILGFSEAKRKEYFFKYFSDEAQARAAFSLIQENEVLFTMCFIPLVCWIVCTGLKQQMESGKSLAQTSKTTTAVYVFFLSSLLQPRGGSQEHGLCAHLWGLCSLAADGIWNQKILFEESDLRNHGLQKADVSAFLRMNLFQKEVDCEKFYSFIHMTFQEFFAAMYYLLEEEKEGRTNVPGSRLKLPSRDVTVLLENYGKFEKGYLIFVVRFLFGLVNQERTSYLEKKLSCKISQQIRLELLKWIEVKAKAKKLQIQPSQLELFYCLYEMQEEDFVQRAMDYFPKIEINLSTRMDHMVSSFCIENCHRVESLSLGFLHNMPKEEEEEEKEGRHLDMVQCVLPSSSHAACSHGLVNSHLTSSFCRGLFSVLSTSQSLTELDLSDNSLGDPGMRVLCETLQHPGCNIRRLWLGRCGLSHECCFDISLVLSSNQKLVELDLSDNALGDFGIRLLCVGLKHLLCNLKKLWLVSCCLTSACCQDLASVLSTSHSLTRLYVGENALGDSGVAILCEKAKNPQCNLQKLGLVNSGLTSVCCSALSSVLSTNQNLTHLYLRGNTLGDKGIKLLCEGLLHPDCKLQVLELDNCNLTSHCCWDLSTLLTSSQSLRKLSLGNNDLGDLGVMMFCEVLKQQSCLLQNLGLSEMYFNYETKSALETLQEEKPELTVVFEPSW
Procedure: Some of the following assays were used to determine the inhibitory activity of the compounds on the NLRP3 inflammasome using a common inflammasome activation stimuli-nigericin.
(§1) Human peripheral blood mononuclear cells (PBMCs), consisting of lymphocytes (T, B and NK cells), monocytes and dendritic cells, are freshly isolated from human peripheral blood from healthy donors. Cells are obtained through an IRB approved donor program by iXCells Biotechnologies where all the donors are tested for bacterial and viral infections. Cells are purified from peripheral blood using ficoll gradient centrifugation.
(§2) Fresh or cryopreserved PMBCs are seeded in V-bottom 96-well plate at 0.5-1×10^5 cells per well and incubated overnight at 37° C. with 5% CO2 in RPMI 1640 medium with GlutaMAX supplement, 4.5 g/L D-glucose, 10% Fetal Bovine Serum (FBS), […] Sodium Pyruvate, 1% Penicillin/Streptomycin, 10 mM HEPES and 0.05 mM of […]. Freshly isolated or cryopreserved KCs cells are seeded in flat-bottom 96-well plates at 0.6-1.5×10^5 cells/well and incubated overnight at 37° C., 5% CO2 in RPMI 1640 Medium with GlutaMAX supplement, FBS, 1% Penicillin/Streptomycin and 10 mM HEPES. The following day, the cells are primed with 100 ng/mL of lipopolysaccharides (LPS; Sigma Aldrich) in FBS-free RPMI 1640 for 3 h. After the priming step, the media is removed and PBMCs are pre-incubated with serial concentrations of test compounds (0.00017-10 uM) or vehicle (DMSO) for 30 min in FBS-free media prior to addition of the NLRP3 activator. Cells are then stimulated with 10 μM Nigericin (Sigma Aldrich; InvivoGen) for 1.5 h. Plates were centrifuged at 1,500 rpm for 3 minutes to pellet cells and supernatant was transferred into new plates for subsequent experiments.
For ELISA assays cells are seeded into 96-well plates. Post study, supernatants are removed and the levels of mature IL-1β, IL18 and TNFα (Quantikine ELISA, R&D systems) are measured in cell conditioned media by ELISA according to manufacturer's instructions.
Human frozen PBMCs were purchased from StemCells Technologies. Cells were rapidly thawed in 37° C. water bath and resuspended in fresh assay media consisting of RPMI 1640 Medium containing 1% sodium pyruvate, 10 mM HEPES, 2.5 g/L glucose and 55 μM 2-Mercaptoethanol. Cell density was adjusted to 8.1×10^5 cells/mL. Cells were primed by adding lipopolysaccharide (Invivogen Ultrapure lipopolysaccharide from E. coli, tlrl-3pelps) at a final concentration of 100 ng/mL in cell suspension. 37 μL of cell suspension with LPS was seeded per well of a 384 well plate and incubated for 3 hours at 37° C. and 5% CO2. After priming, PBMCs were preincubated with serially diluted test compounds with starting concentration of 40 μM followed by 2-fold dilution for a 20-point curve or vehicle (DMSO) for 30 min in assay media at 37° C. and 5% CO2. Cells were then stimulated with 10 μM nigericin (Invivogen, tlrl-nig-5) for 90 min at 37° C. and 5% CO2 to activate NLRP3 dependent inflammasome pathway and IL-1β release in cell culture supernatant. Cells were centrifuged at 1200 RPM for 1 min and 40 μL of supernatant was transferred into fresh plates and stored at −80° C. until IL-1β analysis.
16 μL of supernatant was added to white 384 well HTRF plates, followed by addition of 4 μL of HTRF cocktail in each well. Plates were quickly centrifuged, sealed and incubated overnight at room temperature. Next day, HTRF signal was read on a Pherastar and ratio of 665/620 was calculated based on manufacturer's protocol to obtain concentration of IL-1β in cell culture supernatant.

[3] = test system: PBMCs; assay: CTG (CellTiter-Glo) viability assay of compound-treated LPS and nigericin stimulated PBMCs; type: cell-based, human; conditions: Homo sapiens, PBMC; read-out: PMBC CTG IC50
Procedure: as §1, §2
Viability of compound treated cells is measured using CellTiter-Glo® assay (Promega, Madison, Wis.) that measures the ATP content of cells which is proportional to the number of live cells within a well. This is a counter-screen to establish that the reduction of IL-1β levels in LPS and nigericin stimulated and compound treated cells is not due to cytotoxicity, but rather through the inhibition of the inflammasome pathway. Compounds inhibiting NRLP3 inflammasome activation ultimately increase the viability of LPS and nigericin stimulated cells by blocking NLRP3 mediated pyroptosis that would otherwise lead to cell lysis.

| pIC50 [1] | pIC50 [2] | Structure (SMILES) | pIC50 [3] | IC50 [2] [µM] |
| --- | --- | --- | --- | --- |
| < 4.70 | < 5.00 | CC(C)c1cc(Cl)nc(NC(=O)NS(=O)(=O)c2cnn3c2OCCC3)n1 [Example 16, N-((4-chloro-6-isopropylpyrimidin-2-yl)carbamoyl)-6,7-dihydro-5H-pyrazolo[5,1-b][1,3]oxazine-3-sulfonamide] |  |  |
| 5.85 | 6.02 | CC(C)c1nn(CC2CC2)c(C(C)C)c1NC(=O)NS(=O)(=O)c1cnn2c1OCCC2 [Example 35, N-((1-(cyclopropylmethyl)-3,5-diisopropyl-1H-pyrazol-4-yl)carbamoyl)-6,7-dihydro-5H-pyrazolo[5,1-b][1,3]oxazine-3-sulfonamide] | 6.92 |  |
| < 4.70 | < 5.00 | Cc1nc(NC(=O)NS(=O)(=O)c2cnn3c2OCCC3)nc2c1CCCC2 [Example 24, N-((4-methyl-5,6,7,8-tetrahydroquinazolin-2-yl)carbamoyl)-6,7-dihydro-5H-pyrazolo[5,1-b][1,3]oxazine-3-sulfonamide] |  |  |
| 4.92 | < 5.00 | Cc1cc(C2CC2)nc(NC(=O)NS(=O)(=O)c2cnn3c2OCCC3)n1 [Example 21, N-((4-cyclopropyl-6-methylpyrimidin-2-yl)carbamoyl)-6,7-dihydro-5H-pyrazolo[5,1-b][1,3]oxazine-3-sulfonamide] |  |  |
| < 5.01 | < 5.00 | O=C(Nc1nc(-c2ccccc2)cc(C(F)(F)F)n1)NS(=O)(=O)c1cnn2c1OCCC2 [Example 17, N-((4-phenyl-6-(trifluoromethyl)pyrimidin-2-yl)carbamoyl)-6,7-dihydro-5H-pyrazolo[5,1-b][1,3]oxazine-3-sulfonamide] |  |  |
| < 4.70 | < 5.00 | CC(C)(C)c1cc(C(C)(C)C)nc(NC(=O)NS(=O)(=O)c2cnn3c2OCCC3)n1 [Example 22, N-((4,6-di-tert-butylpyrimidin-2-yl)carbamoyl)-6,7-dihydro-5H-pyrazolo[5,1-b][1,3]oxazine-3-sulfonamide] |  |  |

The next lines start with the compound.

| Structure (SMILES) | pIC50 [1] | pIC50 [2] | pIC50 [3] | IC50 [2] [µM] |
| --- | --- | --- | --- | --- |
| CCn1nc(C(C)C)c(NC(=O)NS(=O)(=O)c2cnn3c2OCCC3)c1C(C)C [Example 34, N-((1-ethyl-3,5-diisopropyl-1H-pyrazol-4-yl)carbamoyl)-6,7-dihydro-5H-pyrazolo[5,1-b][1,3]oxazine-3-sulfonamide] | 5.43 | 5.50 | 5.70 |  |
| CO[C@@H]1COc2c(S(=O)(=O)NC(=O)Nc3c(C(C)C)nn(C)c3C(C)C)cnn2C1 [Example 38a, (S)—N-((3,5-diisopropyl-1-methyl-1H-pyrazol-4-yl)carbamoyl)-6-methoxy-6,7-dihydro-5H-pyrazolo[5,1-b][1,3]oxazine-3-sulfonamide] | 5.60 | 5.94 | 6.17 |  |
| Cc1cc(C)nc(NC(=O)NS(=O)(=O)c2cnn3c2OCCC3)n1 [Example 25, N-((4,6-dimethylpyrimidin-2-yl)carbamoyl)-6,7-dihydro-5H-pyrazolo[5,1-b][1,3]oxazine-3-sulfonamide] | < 4.70 | < 5.00 |  |  |
| CC(C)c1nn(C(C)C)c(C(C)C)c1NC(=O)NS(=O)(=O)c1cnn2c1OCCC2 [Example 33, N-((1,3,5-triisopropyl-1H-pyrazol-4-yl)carbamoyl)-6,7-dihydro-5H-pyrazolo[5,1-b][1,3]oxazine-3-sulfonamide] | 5.40 | 5.30 | 5.35 |  |
| COc1cc(OC)nc(NC(=O)NS(=O)(=O)c2cnn3c2OCCC3)n1 [Example 18, N-((4,6-dimethoxypyrimidin-2-yl)carbamoyl)-6,7-dihydro-5H-pyrazolo[5,1-b][1,3]oxazine-3-sulfonamide] | < 4.70 |  |  | > 10 |
| COc1cc(C)nc(NC(=O)NS(=O)(=O)c2cnn3c2OCCC3)n1 [Example 19, N-((4-methoxy-6-methylpyrimidin-2-yl)carbamoyl)-6,7-dihydro-5H-pyrazolo[5,1-b][1,3]oxazine-3-sulfonamide] | < 4.70 |  |  | > 10 |
| CCn1nc(C(C)C)c(NC(=O)NS(=O)(=O)c2cnn3c2OC[C@@H](NC)C3)c1C(C)C [Example 66a, (S)—N-((1-ethyl-3,5-diisopropyl-1H-pyrazol-4-yl)carbamoyl)-6-(methylamino)-6,7-dihydro-5H-pyrazolo[5,1-b][1,3]oxazine-3-sulfonamide, ammonia] | 5.44 |  |  |  |
| O=C(Nc1nc(-c2ccccc2)cc2c1CCC2)NS(=O)(=O)c1cnn2c1OCCC2 [Example 23, N-((3-phenyl-6,7-dihydro-5H-cyclopenta[c]pyridin-1-yl)carbamoyl)-6,7-dihydro-5H-pyrazolo[5,1-b][1,3]oxazine-3-sulfonamide] | < 4.70 | < 5.00 |  |  |
| O=C(Nc1nc(Cl)cc(Cl)n1)NS(=O)(=O)c1cnn2c1OCCC2 [Example 4, N-((4,6-dichloropyrimidin-2-yl)carbamoyl)-6,7-dihydro-5H-pyrazolo[5,1-b][1,3]oxazine-3-sulfonamide] | < 4.70 | < 5.00 |  |  |
| CC(C)n1nc2c(c1NC(=O)NS(=O)(=O)c1cnn3c1OCC(C)(C)C3)CCC2 [Example 61, N-((2-isopropyl-2,4,5,6-tetrahydrocyclopenta[c]pyrazol-3-yl)carbamoyl)-6,6-dimethyl-6,7-dihydro-5H-pyrazolo[5,1-b][1,3]oxazine-3-sulfonamide] | 6.05 |  |  |  |
